PubChem BioAssay AID2060488 (Molecular Pharmacology Branch, DTP, NCI, 2025)
pIC50: −log10 of the molar value.

Test system: 966289-007-R4-J1-PDC complex spheroid viability
Assay: Anticancer human tumor 966289-007-R4-J1-PDC patient-derived pancreatic adenocarcinoma cell line growth inhibition [GQUAD]
Settings: for pIC50: curve of first compound; for viability, T/C: stronger effect = lower value
How it was run: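 Multi-cell-type spheroids of tumor cells with HUVEC and mesenchymal stem cells, treated with drug combinations. Concentrations descend in half-log steps from near clinical Cmax, or from 10 microM where Cmax is unknown; viability read-out.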

[1] = second compound 0.0316 µM, first compound 0.0316 µM
[2] = second compound 0.0316 µM, first compound 0.1 µM
[3] = second compound 0.0316 µM, first compound 0.316 µM
[4] = second compound 0.0316 µM, first compound 1 µM
[5] = second compound 0.0316 µM, first compound 3.16 µM
[6] = second compound 0.0316 µM, first compound 10 µM
[7] = second compound 0.1 µM, first compound 0.0316 µM
[8] = second compound 0.1 µM, first compound 0.1 µM
[9] = second compound 0.1 µM, first compound 0.316 µM
[10] = second compound 0.1 µM, first compound 1 µM
[11] = second compound 0.1 µM, first compound 3.16 µM
[12] = second compound 0.1 µM, first compound 10 µM
[13] = second compound 0.316 µM, first compound 0.0316 µM
[14] = second compound 0.316 µM, first compound 0.1 µM
[15] = second compound 0.316 µM, first compound 0.316 µM
[16] = second compound 0.316 µM, first compound 1 µM
[17] = second compound 0.316 µM, first compound 3.16 µM
[18] = second compound 0.316 µM, first compound 10 µM
[19] = second compound 1 µM, first compound 0.0316 µM
[20] = second compound 1 µM, first compound 0.1 µM
[21] = second compound 1 µM, first compound 0.316 µM
[22] = second compound 1 µM, first compound 1 µM
[23] = second compound 1 µM, first compound 3.16 µM
[24] = second compound 1 µM, first compound 10 µM
[25] = second compound 3.16 µM, first compound 0.0316 µM
[26] = second compound 3.16 µM, first compound 0.1 µM
[27] = second compound 3.16 µM, first compound 0.316 µM
[28] = second compound 3.16 µM, first compound 1 µM
[29] = second compound 3.16 µM, first compound 3.16 µM
[30] = second compound 3.16 µM, first compound 10 µM
[31] = second compound 10 µM, first compound 0.0316 µM
[32] = second compound 10 µM, first compound 0.1 µM
[33] = second compound 10 µM, first compound 0.316 µM
[34] = second compound 10 µM, first compound 1 µM
[35] = second compound 10 µM, first compound 3.16 µM
[36] = second compound 10 µM, first compound 10 µM
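Also: spheroids exposed to the agents for seven days before readout.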
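For viability, T/C in this document: percent viability relative to DMSO vehicle control wells taken as 100%.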

## CCCS(=O)(=O)Nc1ccc(F)c(C(=O)c2c[nH]c3ncc(-c4ccc(Cl)cc4)cc23)c1F + Cc1[nH]c2ccc(F)cc2c1-c1nc2c3cccnc3c3ncccc3c2[nH]1
Second compound 0.0316 µM
  pIC50: 5.03
Second compound 0.1 µM
  pIC50: 5.07
Second compound 0.316 µM
  pIC50: 5.08
Second compound 1 µM
  pIC50: 5.06
Second compound 3.16 µM
  pIC50: 5.14
Second compound 10 µM
  pIC50: 5.11
[1]
  viability, T/C: 111%
[2]
  viability, T/C: 105%
[3]
  viability, T/C: 116%
[4]
  viability, T/C: 113%
[5]
  viability, T/C: 113%
[6]
  viability, T/C: 46.3%
[7]
  viability, T/C: 101%
[8]
  viability, T/C: 110%
[9]
  viability, T/C: 113%
[10]
  viability, T/C: 112%
[11]
  viability, T/C: 111%
[12]
  viability, T/C: 40.5%
[13]
  viability, T/C: 101%
[14]
  viability, T/C: 108%
[15]
  viability, T/C: 110%
[16]
  viability, T/C: 114%
[17]
  viability, T/C: 112%
[18]
  viability, T/C: 39.3%
[19]
  viability, T/C: 97.6%
[20]
  viability, T/C: 112%
[21]
  viability, T/C: 115%
[22]
  viability, T/C: 114%
[23]
  viability, T/C: 116%
[24]
  viability, T/C: 41.4%
[25]
  viability, T/C: 110%
[26]
  viability, T/C: 114%
[27]
  viability, T/C: 115%
[28]
  viability, T/C: 110%
[29]
  viability, T/C: 108%
[30]
  viability, T/C: 27.6%
[31]
  viability, T/C: 104%
[32]
  viability, T/C: 111%
[33]
  viability, T/C: 115%
[34]
  viability, T/C: 112%
[35]
  viability, T/C: 112%
[36]
  viability, T/C: 33.5%

## CC[C@@]1(O)C(=O)OCc2c1cc1n(c2=O)Cc2cc3c(CN(C)C)c(O)ccc3nc2-1 + Cc1[nH]c2ccc(F)cc2c1-c1nc2c3cccnc3c3ncccc3c2[nH]1
Second compound 0.0316 µM
  pIC50: 7.35
Second compound 0.1 µM
  pIC50: 7.32
Second compound 0.316 µM
  pIC50: 7.30
Second compound 1 µM
  pIC50: 7.31
Second compound 3.16 µM
  pIC50: 7.43
Second compound 10 µM
  pIC50: 7.59
Second compound 0.0316 µM, first compound 0.000999 µM
  viability, T/C: 102%
Second compound 0.0316 µM, first compound 0.00316 µM
  viability, T/C: 94.6%
Second compound 0.0316 µM, first compound 0.00999 µM
  viability, T/C: 90.2%
[1]
  viability, T/C: 70.8%
Second compound 0.0316 µM, first compound 0.0999 µM
  viability, T/C: 0.88%
[3]
  viability, T/C: 0.48%
Second compound 0.1 µM, first compound 0.000999 µM
  viability, T/C: 99.3%
Second compound 0.1 µM, first compound 0.00316 µM
  viability, T/C: 101%
Second compound 0.1 µM, first compound 0.00999 µM
  viability, T/C: 101%
[7]
  viability, T/C: 78.2%
Second compound 0.1 µM, first compound 0.0999 µM
  viability, T/C: 0.6%
[9]
  viability, T/C: 0.5%
Second compound 0.316 µM, first compound 0.000999 µM
  viability, T/C: 94.1%
Second compound 0.316 µM, first compound 0.00316 µM
  viability, T/C: 105%
Second compound 0.316 µM, first compound 0.00999 µM
  viability, T/C: 110%
[13]
  viability, T/C: 83.1%
Second compound 0.316 µM, first compound 0.0999 µM
  viability, T/C: 0.88%
[15]
  viability, T/C: 0.49%
Second compound 1 µM, first compound 0.000999 µM
  viability, T/C: 92.4%
Second compound 1 µM, first compound 0.00316 µM
  viability, T/C: 95%
Second compound 1 µM, first compound 0.00999 µM
  viability, T/C: 106%
[19]
  viability, T/C: 80.9%
Second compound 1 µM, first compound 0.0999 µM
  viability, T/C: 0.78%
[21]
  viability, T/C: 0.62%
Second compound 3.16 µM, first compound 0.000999 µM
  viability, T/C: 105%
Second compound 3.16 µM, first compound 0.00316 µM
  viability, T/C: 113%
Second compound 3.16 µM, first compound 0.00999 µM
  viability, T/C: 115%
[25]
  viability, T/C: 57.7%
Second compound 3.16 µM, first compound 0.0999 µM
  viability, T/C: 0.9%
[27]
  viability, T/C: 0.56%
Second compound 10 µM, first compound 0.000999 µM
  viability, T/C: 105%
Second compound 10 µM, first compound 0.00316 µM
  viability, T/C: 106%
Second compound 10 µM, first compound 0.00999 µM
  viability, T/C: 108%
[31]
  viability, T/C: 38.2%
Second compound 10 µM, first compound 0.0999 µM
  viability, T/C: 0.71%
[33]
  viability, T/C: 0.5%

## COc1cc(C2c3cc4c(cc3C(OC3OC5COC(C)OC5C(O)C3O)C3COC(=O)C23)OCO4)cc(OC)c1O (stereo unspecified) + Cc1[nH]c2ccc(F)cc2c1-c1nc2c3cccnc3c3ncccc3c2[nH]1
Second compound 0.0316 µM
  pIC50: 6.49
Second compound 0.1 µM
  pIC50: 6.56
Second compound 0.316 µM
  pIC50: 6.51
Second compound 1 µM
  pIC50: 6.52
Second compound 3.16 µM
  pIC50: 6.60
Second compound 10 µM
  pIC50: 6.66
[1]
  viability, T/C: 107%
[2]
  viability, T/C: 104%
[3]
  viability, T/C: 50.5%
[4]
  viability, T/C: 4.72%
[5]
  viability, T/C: 2.07%
[6]
  viability, T/C: 0.7%
[7]
  viability, T/C: 107%
[8]
  viability, T/C: 105%
[9]
  viability, T/C: 41.7%
[10]
  viability, T/C: 7.49%
[11]
  viability, T/C: 1.48%
[12]
  viability, T/C: 0.65%
[13]
  viability, T/C: 102%
[14]
  viability, T/C: 112%
[15]
  viability, T/C: 49.2%
[16]
  viability, T/C: 7.18%
[17]
  viability, T/C: 1.57%
[18]
  viability, T/C: 0.55%
[19]
  viability, T/C: 99.4%
[20]
  viability, T/C: 110%
[21]
  viability, T/C: 48%
[22]
  viability, T/C: 7.65%
[23]
  viability, T/C: 1.61%
[24]
  viability, T/C: 0.65%
[25]
  viability, T/C: 108%
[26]
  viability, T/C: 99.6%
[27]
  viability, T/C: 37.6%
[28]
  viability, T/C: 6.91%
[29]
  viability, T/C: 2.31%
[30]
  viability, T/C: 0.77%
[31]
  viability, T/C: 101%
[32]
  viability, T/C: 97.2%
[33]
  viability, T/C: 28.1%
[34]
  viability, T/C: 3.87%
[35]
  viability, T/C: 1.57%
[36]
  viability, T/C: 0.58%
